Where only a bound is given, the exact number is not on record here.

Assay type in all cases: cell-based
For one test, the target named is T1, human TLR8 (Homo sapiens, UniProt Q9NR97).
T1 construct: expressed in transfected cells; host or cells: HEK293
T1 sequence (Q9NR97 27-1041): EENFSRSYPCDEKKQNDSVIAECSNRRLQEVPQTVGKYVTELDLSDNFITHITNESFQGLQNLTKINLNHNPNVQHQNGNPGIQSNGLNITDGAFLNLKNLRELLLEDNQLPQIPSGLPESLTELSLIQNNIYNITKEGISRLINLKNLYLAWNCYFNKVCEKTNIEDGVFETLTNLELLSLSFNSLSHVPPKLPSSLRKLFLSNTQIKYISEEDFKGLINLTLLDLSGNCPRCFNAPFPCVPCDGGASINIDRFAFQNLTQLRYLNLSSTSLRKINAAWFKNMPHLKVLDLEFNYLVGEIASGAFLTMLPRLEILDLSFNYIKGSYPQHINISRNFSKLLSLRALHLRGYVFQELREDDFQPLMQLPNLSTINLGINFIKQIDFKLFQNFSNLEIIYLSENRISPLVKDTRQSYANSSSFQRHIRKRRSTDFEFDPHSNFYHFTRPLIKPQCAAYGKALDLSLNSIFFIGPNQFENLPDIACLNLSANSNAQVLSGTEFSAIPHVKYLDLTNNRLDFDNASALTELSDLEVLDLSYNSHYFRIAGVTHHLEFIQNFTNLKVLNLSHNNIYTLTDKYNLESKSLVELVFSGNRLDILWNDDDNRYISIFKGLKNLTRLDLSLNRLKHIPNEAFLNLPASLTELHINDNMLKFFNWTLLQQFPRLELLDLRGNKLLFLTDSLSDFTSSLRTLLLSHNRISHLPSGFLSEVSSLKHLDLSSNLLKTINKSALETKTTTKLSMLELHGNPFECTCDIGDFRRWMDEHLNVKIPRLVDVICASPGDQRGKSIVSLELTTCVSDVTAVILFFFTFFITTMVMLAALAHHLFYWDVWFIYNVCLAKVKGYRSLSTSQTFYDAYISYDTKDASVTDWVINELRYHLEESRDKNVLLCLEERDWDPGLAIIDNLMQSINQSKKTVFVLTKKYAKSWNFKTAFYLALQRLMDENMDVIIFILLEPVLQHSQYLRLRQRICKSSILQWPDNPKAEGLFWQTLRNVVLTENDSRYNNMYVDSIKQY
The experiment in a line: TLR8 cellular NFκB-luc reporter assay in transiently transfected HEK293 cells. The note with it: lowest effective concentration, 6 hours incubation. The method, then: (§1) The ability of compounds to activate human TLR7 and/or TLR8 was assessed in a cellular reporter assay using HEK293 cells transiently transfected with a TLR7 or TLR8 expression vector and NFκB-luc reporter construct.
(§2) Briefly, HEK293 cells were grown in culture medium (DMEM supplemented with 10% FCS and 2 mM Glutamine). For transfection of cells in 15 cm dishes, cells were detached with Trypsin-EDTA, transfected with a mix of CMV-TLR7 or TLR8 plasmid (1700 ng), NFκB-luc plasmid (850 ng) and a transfection reagent and incubated for 48 h at 37° C. in a humidified 5% CO2 atmosphere. Transfected cells were then washed in PBS, detached with Trypsin-EDTA and resuspended in medium to a density of 1.25×10^5 cells/mL. Forty microliters of cells were then dispensed into each well in 384-well plates, where 200 nL of compound in 100% DMSO was already present. Following 6 hours incubation at 37° C., 5% CO2, the luciferase activity was determined by adding 15 μL of Steady Lite Plus substrate (Perkin Elmer) to each well and readout performed on a ViewLux ultraHTS microplate imager (Perkin Elmer). Dose response curves were generated from measurements performed in quadruplicates. Lowest effective concentrations (LEC) values, defined as the concentration that induces an effect which is at least two fold above the standard deviation of the assay, were determined for each compound.
In general terms: A reporter such as luciferase makes a cellular process visible.

The next test has as its target T2, human TLR7 (Homo sapiens, UniProt Q9NYK1).
T2 construct: expressed in transfected cells; host or cells: HEK293
T2 sequence (Q9NYK1 27-1049): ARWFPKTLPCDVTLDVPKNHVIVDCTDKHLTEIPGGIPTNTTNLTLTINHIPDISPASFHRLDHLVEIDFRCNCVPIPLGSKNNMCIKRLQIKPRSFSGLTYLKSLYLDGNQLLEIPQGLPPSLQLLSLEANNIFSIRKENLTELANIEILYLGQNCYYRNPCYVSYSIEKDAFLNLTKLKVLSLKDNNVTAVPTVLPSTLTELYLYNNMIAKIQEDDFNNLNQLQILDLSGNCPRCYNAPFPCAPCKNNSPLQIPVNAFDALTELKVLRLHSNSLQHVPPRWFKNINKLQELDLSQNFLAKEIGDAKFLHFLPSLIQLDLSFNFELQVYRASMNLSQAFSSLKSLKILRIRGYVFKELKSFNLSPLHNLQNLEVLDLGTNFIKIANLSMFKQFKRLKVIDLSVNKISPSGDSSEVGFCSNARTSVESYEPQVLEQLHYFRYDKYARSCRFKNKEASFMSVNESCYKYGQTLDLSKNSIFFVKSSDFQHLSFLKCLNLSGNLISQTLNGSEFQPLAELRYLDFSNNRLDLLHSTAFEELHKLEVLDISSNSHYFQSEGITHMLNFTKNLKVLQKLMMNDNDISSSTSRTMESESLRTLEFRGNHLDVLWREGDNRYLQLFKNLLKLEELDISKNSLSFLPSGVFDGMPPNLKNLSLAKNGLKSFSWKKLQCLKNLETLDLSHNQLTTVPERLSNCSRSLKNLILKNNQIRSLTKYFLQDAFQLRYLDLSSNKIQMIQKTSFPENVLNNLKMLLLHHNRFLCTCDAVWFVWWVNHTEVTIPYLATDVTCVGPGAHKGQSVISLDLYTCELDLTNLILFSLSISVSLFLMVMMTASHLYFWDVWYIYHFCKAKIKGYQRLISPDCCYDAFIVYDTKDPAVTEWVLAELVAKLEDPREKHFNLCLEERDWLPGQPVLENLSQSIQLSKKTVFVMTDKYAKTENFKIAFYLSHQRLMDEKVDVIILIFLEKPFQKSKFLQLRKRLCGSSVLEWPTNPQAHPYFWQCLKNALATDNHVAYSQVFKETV
The experiment in a line: TLR7 cellular NFκB-luc reporter assay in transiently transfected HEK293 cells. The note with it: lowest effective concentration, 6 hours incubation. Here is the method:
as §1
as §2, with “quadruplicates.” for “quadruplicates. Lowest effective concentrations (LEC) values, defined as the concentration that induces an effect which is at least two fold above the standard deviation of the assay, were determined for each compound.”

Test [1] deals with interferon-stimulated responsive elements (ISRE). The experiment in a line: Activation of ISRE promoter elements in HEK-ISREluc cells by conditioned media from compound-treated PBMC. The note with it: compound concentration applied to PBMCs overnight, supernatant on HEK-ISREluc cells 24 hours, read-out: HEK-ISRE luc (LEC). Here is the method:
The potential of compounds to induce IFN-I was also evaluated by measuring the activation of interferon-stimulated responsive elements (ISRE) by conditioned media from PBMC. The ISRE element of sequence […] (SEQ ID NO: 1) is highly responsive to the STAT1-STAT2-IRF9 transcription factor, activated upon binding of IFN-I to their receptor IFNAR (Clontech, PT3372-5W). The plasmid pISRE-Luc from Clontech (ref. 631913) contains 5 copies of this ISRE element, followed by the firefly luciferase ORF. A HEK293 cell line stably transfected with pISRE-Luc (HEK-ISREluc) was established to profile the conditioned PBMC cell culture media.
Briefly, PBMCs were prepared from buffy coats of at least two donors using a standard Ficoll centrifugation protocol. Isolated PBMCs were resuspended in RPMI medium supplemented with 10% human AB serum and 2×10^5 cells/well were dispensed into 384-well plates containing compounds (70 μL total volume). After overnight incubation, 10 μL of supernatant was transferred to 384-well plates containing 5×10^3 HEK-ISREluc cells/well in 30 μL (plated the day before). Following 24 hours of incubation, activation of the ISRE elements was measured by assaying luciferase activity using 40 μL/well Steady Lite Plus substrate (Perkin Elmer) and measured with ViewLux ultraHTS microplate imager (Perkin Elmer). The stimulating activity of each compound on the HEK-ISREluc cells was reported as LEC value, defined as the compound concentration applied to the PBMCs resulting in a luciferase activity at least two fold above the standard deviation of the assay. The LEC in turn indicates the degree of ISRE activation on transfer of a defined amount of PBMC culture medium. Recombinant interferon α-2a (Roferon-A) was used as a standard control compound.

On to `Cc1nc(COc2nc(N)nc3ccn(Cc4ccccn4)c23)no1` [Compound 6], for which, on human TLR8, the “Human TLR 8 (LEC)” value is over 25 µM.

Consider `Cc1cc(COc2nc(N)nc3ccn(Cc4ccccn4)c23)no1` [Compound 5], for which the “Human TLR 8 (LEC)” value at human TLR8 is over 25 µM.

Turning to `COc1cccnc1Cn1ccc2nc(N)nc(OCc3ncc(C)o3)c21` [Compound 9], at human TLR8, the “Human TLR 8 (LEC)” value is over 25 µM.

For the compound `COc1cccnc1Cn1ccc2nc(N)nc(OCc3cc(C)on3)c21` [Compound 8], on human TLR7, the “Human TLR 7 (LEC)” value stood at 0.03 µM. Further, at human TLR8, the “Human TLR 8 (LEC)” value is over 25 µM. Further, the minimal effective concentration in test [1] was 0.01 µM.

Take `CCCCOc1nc(N)nc2ccn(Cc3ccccn3)c12` [Compound 4]: on human TLR7, the “Human TLR 7 (LEC)” value worked out at 1.4 µM. Also, the “Human TLR 8 (LEC)” value at human TLR8 was over 25 µM. Also, the minimal effective concentration in test [1] turned out to be 0.6 µM.

`Cc1cnc(COc2nc(N)nc3ccn(Cc4ccccn4)c23)o1` [Compound 11]: the “Human TLR 8 (LEC)” value on human TLR8 is over 25 µM.

Turning to `COCCn1ccc2nc(N)nc(OCc3cc(C)on3)c21` [Compound 2], on human TLR7, the “Human TLR 7 (LEC)” value is 2.7 µM. In addition, the “Human TLR 8 (LEC)” value on human TLR8 was over 25 µM. For the same compound, in test [1], the minimal effective concentration amounted to 0.5 µM.

Turning to `Cc1cnc(COc2nc(N)nc3ccn(Cc4ccccn4)c23)s1` [Compound 10], the “Human TLR 8 (LEC)” value at human TLR8 is over 25 µM.

Consider `COc1ccccc1Cn1ccc2nc(N)nc(OCc3cc(C)on3)c21` [Compound 3], for which, at human TLR7, the “Human TLR 7 (LEC)” value came to 0.1 µM. In addition, on human TLR8, the “Human TLR 8 (LEC)” value was over 25 µM. The minimal effective concentration in test [1] was determined as 0.03 µM.

With `COc1ccc(Cn2ccc3nc(N)nc(OCc4cc(C)on4)c32)nc1OC` [Compound 7], the “Human TLR 7 (LEC)” value on human TLR7 came out at 0.08 µM. The “Human TLR 8 (LEC)” value at human TLR8 was over 25 µM. The minimal effective concentration in test [1] stood at 0.03 µM.

For the compound `CCCCOc1nc(N)nc2ccn(Cc3ccccc3)c12` [Compound 1], the “Human TLR 7 (LEC)” value on human TLR7 was 0.6 µM. Moreover, the “Human TLR 8 (LEC)” value at human TLR8 is over 25 µM. Also, the minimal effective concentration in test [1] turned out to be 0.4 µM.
